Source: patent US20230277483A1, “COMPOSITIONS AND METHODS TO TREAT INFLAMMATION” (University of Iowa Research Foundation, priority 2022, published 2023)

Tests used:
[1] = system: S. oralis (So, ATCC 35037); experiment: Bacterial proliferation measured by OD600; format: cell-based, Streptococcus oralis; settings: HCA at 0.1 μM; aerobic culture
Description: (§1) Sg metabolites promote commensal bacterial proliferation and inhibit periodontopathogenic bacterial proliferation and colonization. Commensal bacteria, Sg, S. sanguinis (Ss, ATCC10556), S. mitis (Sm, ATCC49456) and S. oralis (So, ATCC 35037) were cultured in BHI medium. In addition, pathogenic bacteria, Pg was cultured using BHI and Tf (ATCC43037), and Td (ATCC 35405) were grown in Thioglycollate medium with vitamin K and Hemin in 90% N2, 5% H2, 5% CO2. The Sg metabolites were diluted using DMEM and added to the bacteria with the similar OD600 value. The same amount of DMEM was used as a control. During the exponential growth of bacteria, the OD600 value was measured to determine the proliferation. […] In addition, to determine the function of Sg metabolites on Pg colonization, Pg were inoculated in 24-well plates containing BHI or BHI supplemented with DMEM or Sg metabolites. […]
(§2) HCA promotes proliferation of health related bacteria and inhibits proliferation and attachment of periodontopathogenic bacteria. […] The composition of the microbiomes was determined by amplifying the V3 and V4 regions of the 16S rRNA genes. Raw data in FASTQ format were filtered and denoised using DADA2 (Divisive Amplicon Denoising Algorithm) to generate amplicon sequence variants (ASV) or operational taxonomical units (OTUs) that were then analyzed by QIIME2.

S. mitis (Sm, ATCC49456) = experiment: Bacterial proliferation (growth profile); format: cell-based, Streptococcus mitis; settings: HCA at 0.1 μM; aerobic culture
Description: as §1, §2

Td (ATCC 35405) = experiment: Bacterial proliferation measured by OD600; format: cell-based, Treponema denticola; settings: HCA at 0.1 μM; anaerobic culture
Description: as §1, §2

Pg = Pg attachment (early biofilm formation, colonization) on culture plates; format: cell-based, Porphyromonas gingivalis
Description: as §1, §2

[2] = system: primary human gingival fibroblasts (HGF); experiment: MTT toxicity assay; format: cell-based; settings: HCA from 0.1 to 50 μM; 24 and 48 hours
3T3-L1 = experiment: TNF-induced inflammation in differentiated white adipocytes; format: cell-based, mouse; settings: 10 ng/ml TNF with 0.1 uM HCA, 24 hr
Description: 3T3-L1 (CL-173-ATCC, PMID. 26451286) were grown in DMEM containing 10% fetal bovine serum (FBS) and 1% pen/strep. Cells were induced to differentiate 2 d after reaching confluence by supplementing growth media with 3 nM insulin (Humulin R, Lily, Humulin R U-500, 0002-8501-01), 0.25 nM dexamethasone (Sigma, D4902), 2 uM rosiglitazone (Sigma, R2408) and 0.5 mM 1-methyl-3-isobutyl-xanthine (Sigma, I5879). From day 3 until day 7, cells were maintained in growth media supplemented with 3 nM insulin after which the mature adipocytes were maintained in growth media. Cells were then incubated for 24 hr in the presence or absence of 10 ng/ml TNF (PeproTech, 315-01A) with or without 0.1 uM 6-Hydroxycaproic acid (HCA, Sigma, 515302).
To determine the effects of HCA on adipose-mediated inflammation, 3T3-L1 cells were differentiated into white adipocytes and then exposed to the pro-inflammatory cytokine tumor necrosis factor alpha (TNFa).

C57BL/6J mice = experiment: Pg-LPS gingival injection mouse model of periodontal inflammation; format: in vivo; settings: 100 μl of HCA at 0.5 μM I.P. three times a week, 3 weeks
[3] = system: oral and fecal microbiomes of obese mice; experiment: Oral and fecal microbiome composition (16S rRNA) in DIO mice; format: in vivo, mouse; settings: 100 μl of HCA at 0.2 and 0.5 μM I.P. three times a week for 3 weeks
Description: HCA promotes proliferation of health related bacteria and inhibits proliferation and attachment of periodontopathogenic bacteria. Promoting the growth of health-related commensal bacteria while inhibiting proliferation and attachment of pathogenic bacteria may be effective at preventing or treating periodontal inflammation. To determine if HCA has an effect on the growth properties of commensal bacteria and periodontopathogens, HCA at different concentrations was added to aerobic culture of S. mitis and S. oralis and anaerobic culture of T. denticola as described in our published manuscript (see detail in Shu et al, Journal of Periodontology, 2022). FIGS. 18A-C summarize the functions of HCA on the proliferation of specific commensal and pathogenic bacteria. […] Furthermore, the function of HCA on P. gingivalis attachment, a key parameter of adhesion and biofilm formation by periodontopathogenic bacteria, was investigated. […] The composition of the microbiomes was determined by amplifying the V3 and V4 regions of the 16S rRNA genes. Raw data in FASTQ format were filtered and denoised using DADA2 (Divisive Amplicon Denoising Algorithm) to generate amplicon sequence variants (ASV) or operational taxonomical units (OTUs) that were then analyzed by QIIME2.

Structure (SMILES): O=C(O)CCCCCO [HCA, 6-hydroxycaproic acid]
- proliferation of S. oralis [1]: improve proliferation
- proliferation of S. mitis (S. mitis (Sm, ATCC49456)): improve proliferation
- proliferation of T. denticola (Td (ATCC 35405)): significantly inhibits
- attachment of P. gingivalis (Pg; HCA at 0.01 μM): less of an effect
- attachment of P. gingivalis (Pg; HCA at 0.05 μM vs untreated control, optical density): significantly reduced
- toxicity (MTT assay) [2]: No toxicity
- TNF-induced IL-6 secretion (3T3-L1): significantly reduced
- serum IL-1β production (ELISA) (C57BL/6J mice): significantly reduced
- gingival IL-1β expression (qRT-PCR) (C57BL/6J mice; Pg-LPS twice a week): suppressing gingival IL-1β expression
- effect on composition of the microbiomes [3]: dose dependent
- representation of Streptococcus danieliae and other unclassified streptococci in the oral microbiome [3]: large increases
